Reference: ChEMBL document CHEMBL3046635, “Synthesis and Herbicidal Activity of New Pyrazole-4-carboxamide Derivatives” (J Pestic Sci, 2004)
The source made the active and inactive calls. Unless noted, the calls are words filed in the database; no cut-off is given here.

Columns and labels:
Eleocharis acicularis [1] = test: Pre-emergence herbicidal activity against Eleocharis acicularis at 100 g a.i/ha measured after 14 days; format: functional, organism-based
Oryza sativa [2] = test: Phytotoxicity against Oryza sativa cv. Koshihikari (rice) at 100 g a.i/ha measured after 14 days; format: organism-based; details: in vivo, 336 h
[3] = test system: Schoenoplectiella juncoides; test: Pre-emergence herbicidal activity against Schoenoplectiella juncoides at 100 g a.i/ha measured after 14 days; format: functional, organism-based
Pontederia vaginalis [4] = test: Pre-emergence herbicidal activity against Monochoria vaginalis at 100 g a.i/ha measured after 14 days; format: functional, organism-based
Ammannia multiflora [5] = test: Pre-emergence herbicidal activity against Ammannia multiflora at 100 g a.i/ha measured after 14 days; format: functional, organism-based
Rotala indica [6] = test: Pre-emergence herbicidal activity against Rotala indica at 100 g a.i/ha measured after 14 days; format: functional, organism-based
Elatine triandra [7] = test: Pre-emergence herbicidal activity against Elatine triandra at 100 g a.i/ha measured after 14 days; format: functional, organism-based
Lindernia procumbens [8] = test: Pre-emergence herbicidal activity against Lindernia procumbens at 100 g a.i/ha measured after 14 days; format: functional, organism-based
Cyperus difformis [9] = test: Pre-emergence herbicidal activity against Cyperus difformis at 100 g a.i/ha measured after 14 days; format: functional, organism-based
Echinochloa oryzicola [10] = test: Pre-emergence herbicidal activity against Echinochloa oryzicola at 100 g a.i/ha measured after 14 days; format: functional, organism-based
Oryza sativa [11] = test: Phytotoxicity against Oryza sativa cv. Koshihikari (rice) at 500 g a.i/ha measured after 14 days; format: organism-based; details: in vivo, 336 h
Eleocharis acicularis [12] = test: Pre-emergence herbicidal activity against Eleocharis acicularis at 500 g a.i/ha measured after 14 days; format: functional, organism-based
Pontederia vaginalis [13] = test: Pre-emergence herbicidal activity against Monochoria vaginalis at 500 g a.i/ha measured after 14 days; format: functional, organism-based
[14] = test system: Schoenoplectiella juncoides; test: Pre-emergence herbicidal activity against Schoenoplectiella juncoides at 500 g a.i/ha measured after 14 days; format: functional, organism-based
Ammannia multiflora [15] = test: Pre-emergence herbicidal activity against Ammannia multiflora at 500 g a.i/ha measured after 14 days; format: functional, organism-based
Elatine triandra [16] = test: Pre-emergence herbicidal activity against Elatine triandra at 500 g a.i/ha measured after 14 days; format: functional, organism-based
Rotala indica [17] = test: Pre-emergence herbicidal activity against Rotala indica at 500 g a.i/ha measured after 14 days; format: functional, organism-based
Lindernia procumbens [18] = test: Pre-emergence herbicidal activity against Lindernia procumbens at 500 g a.i/ha measured after 14 days; format: functional, organism-based
Echinochloa oryzicola [19] = test: Pre-emergence herbicidal activity against Echinochloa oryzicola at 500 g a.i/ha measured after 14 days; format: functional, organism-based
Cyperus difformis [20] = test: Pre-emergence herbicidal activity against Cyperus difformis at 500 g a.i/ha measured after 14 days; format: functional, organism-based
Eleocharis acicularis [21] = test: Post-emergence herbicidal activity against Eleocharis acicularis assessed as bleaching of stem/leaf parts; format: functional, organism-based; further: test concentration or dose not given here
Eleocharis acicularis [22] = test: Pre-emergence herbicidal activity against Eleocharis acicularis assessed as bleaching of stem/leaf parts; format: functional, organism-based
Ammannia multiflora [23] = test: Pre-emergence herbicidal activity against Ammannia multiflora assessed as bleaching of stem/leaf parts; format: functional, organism-based
Rotala indica [24] = test: Pre-emergence herbicidal activity against Rotala indica assessed as bleaching of stem/leaf parts; format: functional, organism-based
Elatine triandra [25] = test: Pre-emergence herbicidal activity against Elatine triandra assessed as bleaching of stem/leaf parts; format: functional, organism-based
Lindernia procumbens [26] = test: Pre-emergence herbicidal activity against Lindernia procumbens assessed as bleaching of stem/leaf parts; format: functional, organism-based
[27] = test system: Schoenoplectiella juncoides; test: Pre-emergence herbicidal activity against Schoenoplectiella juncoides assessed as bleaching of stem/leaf parts; format: functional, organism-based
Pontederia vaginalis [28] = test: Pre-emergence herbicidal activity against Monochoria vaginalis assessed as bleaching of stem/leaf parts; format: functional, organism-based
Cyperus difformis [29] = test: Pre-emergence herbicidal activity against Cyperus difformis assessed as bleaching of stem/leaf parts; format: functional, organism-based
Echinochloa oryzicola [30] = test: Pre-emergence herbicidal activity against Echinochloa oryzicola assessed as bleaching of stem/leaf parts; format: functional, organism-based
Ammannia multiflora [31] = test: Post-emergence herbicidal activity against Ammannia multiflora assessed as bleaching of stem/leaf parts; format: functional, organism-based; further: test concentration or dose not given here
Elatine triandra [32] = test: Post-emergence herbicidal activity against Elatine triandra assessed as bleaching of stem/leaf parts; format: functional, organism-based; further: test concentration or dose not given here
Rotala indica [33] = test: Post-emergence herbicidal activity against Rotala indica assessed as bleaching of stem/leaf parts; format: functional, organism-based; further: test concentration or dose not given here
[34] = test system: Schoenoplectiella juncoides; test: Post-emergence herbicidal activity against Schoenoplectiella juncoides assessed as bleaching of stem/leaf parts; format: functional, organism-based; further: test concentration or dose not given here
Lindernia procumbens [35] = test: Post-emergence herbicidal activity against Lindernia procumbens assessed as bleaching of stem/leaf parts; format: functional, organism-based; further: test concentration or dose not given here
Pontederia vaginalis [36] = test: Post-emergence herbicidal activity against Monochoria vaginalis assessed as bleaching of stem/leaf parts; format: functional, organism-based; further: test concentration or dose not given here
Cyperus difformis [37] = test: Post-emergence herbicidal activity against Cyperus difformis assessed as bleaching of stem/leaf parts; format: functional, organism-based; further: test concentration or dose not given here
Echinochloa oryzicola [38] = test: Post-emergence herbicidal activity against Echinochloa oryzicola assessed as bleaching of stem/leaf parts; format: functional, organism-based; further: test concentration or dose not given here

Compound | Activity (Eleocharis acicularis [1]) | Activity (Oryza sativa [2]) | Activity [3] | Activity (Pontederia vaginalis [4]) | Activity (Ammannia multiflora [5]) | Activity (Rotala indica [6]) | Activity (Elatine triandra [7]) | Activity (Lindernia procumbens [8]) | Activity (Cyperus difformis [9]) | Activity (Echinochloa oryzicola [10]) | Activity (Oryza sativa [11]) | Activity (Eleocharis acicularis [12]) | Activity (Pontederia vaginalis [13]) | Activity [14] | Activity (Ammannia multiflora [15]) | Activity (Elatine triandra [16]) | Activity (Rotala indica [17]) | Activity (Lindernia procumbens [18]) | Activity (Echinochloa oryzicola [19]) | Activity (Cyperus difformis [20]) | other results
CCCN(OCC)C(=O)c1cn(C)nc1OCc1cccc(C(F)(F)F)c1 | inactive | Non-toxic | inactive | inactive | Active | Active | Active | Active | Active | Active | Non-toxic | Active | Active | inactive | Active | Active | Active | Active | Active | Active | Activity (Eleocharis acicularis [21]): Active; Activity (Eleocharis acicularis [22]): Active; Activity (Ammannia multiflora [23]): Active; Activity (Rotala indica [24]): Active; Activity (Elatine triandra [25]): Active; Activity (Lindernia procumbens [26]): Active; Activity [27]: Active; Activity (Pontederia vaginalis [28]): Active; Activity (Cyperus difformis [29]): Active; Activity (Echinochloa oryzicola [30]): Active; Activity (Ammannia multiflora [31]): Active; Activity (Elatine triandra [32]): Active; Activity (Rotala indica [33]): Active; Activity [34]: Active; Activity (Lindernia procumbens [35]): Active; Activity (Pontederia vaginalis [36]): Active; Activity (Cyperus difformis [37]): Active; Activity (Echinochloa oryzicola [38]): Active
CCONC(=O)c1cn(CC)nc1OCc1cccc(C(F)(F)F)c1 | inactive | Non-toxic | inactive | inactive | Active | Active | Active | Active | Active | Active | Non-toxic | Active | Active | Active | Active | Active | Active | Active | Active | Active | Activity (Eleocharis acicularis [21]): Active; Activity (Eleocharis acicularis [22]): Active; Activity (Ammannia multiflora [23]): Active; Activity (Rotala indica [24]): Active; Activity (Elatine triandra [25]): Active; Activity (Lindernia procumbens [26]): Active; Activity [27]: Active; Activity (Pontederia vaginalis [28]): Active; Activity (Cyperus difformis [29]): Active; Activity (Echinochloa oryzicola [30]): Active; Activity (Ammannia multiflora [31]): Active; Activity (Elatine triandra [32]): Active; Activity (Rotala indica [33]): Active; Activity [34]: Active; Activity (Lindernia procumbens [35]): Active; Activity (Pontederia vaginalis [36]): Active; Activity (Cyperus difformis [37]): Active; Activity (Echinochloa oryzicola [38]): Active
Cn1cc(C(=O)NOc2ccc(C(F)(F)F)cc2)c(OCc2cccc(C(F)(F)F)c2)n1 | Active | Non-toxic | Active | Active | Active | Active | Active | Active | Active | Active | Non-toxic | Active | Active | Active | Active | Active | Active | Active | Active | Active | Activity (Eleocharis acicularis [21]): Active; Activity (Eleocharis acicularis [22]): Active; Activity (Ammannia multiflora [23]): Active; Activity (Rotala indica [24]): Active; Activity (Elatine triandra [25]): Active; Activity (Lindernia procumbens [26]): Active; Activity [27]: Active; Activity (Pontederia vaginalis [28]): Active; Activity (Cyperus difformis [29]): Active; Activity (Echinochloa oryzicola [30]): Active; Activity (Ammannia multiflora [31]): Active; Activity (Elatine triandra [32]): Active; Activity (Rotala indica [33]): Active; Activity [34]: Active; Activity (Lindernia procumbens [35]): Active; Activity (Pontederia vaginalis [36]): Active; Activity (Cyperus difformis [37]): Active; Activity (Echinochloa oryzicola [38]): Active
Cn1cc(C(=O)NOc2ccc(Cl)cc2Cl)c(OCc2cccc(C(F)(F)F)c2)n1 | Active | Non-toxic | inactive | Active | Active | Active | Active | Active | Active | Active | Non-toxic | Active | Active | Active | Active | Active | Active | Active | Active | Active | Activity (Eleocharis acicularis [21]): Active; Activity (Eleocharis acicularis [22]): Active; Activity (Ammannia multiflora [23]): Active; Activity (Rotala indica [24]): Active; Activity (Elatine triandra [25]): Active; Activity (Lindernia procumbens [26]): Active; Activity [27]: Active; Activity (Pontederia vaginalis [28]): Active; Activity (Cyperus difformis [29]): Active; Activity (Echinochloa oryzicola [30]): Active; Activity (Ammannia multiflora [31]): Active; Activity (Elatine triandra [32]): Active; Activity (Rotala indica [33]): Active; Activity [34]: Active; Activity (Lindernia procumbens [35]): Active; Activity (Pontederia vaginalis [36]): Active; Activity (Cyperus difformis [37]): Active; Activity (Echinochloa oryzicola [38]): Active
